Data reported in ChEMBL document CHEMBL1141342, “Cytotoxic C47-polyacetylene carboxylic acids from a marine sponge Pertrosia sp” (J Nat Prod, 2007).
≈ marks a conversion by molar mass, not a printed value.

Test system: P388
Experiment: Cytotoxicity against mouse P388 cells
Format: functional, cell-based

| Compound | IC50 [µg/mL] |
| --- | --- |
| C#C[C@@H](O)/C=C/CCCCCCC#C[C@H](O)C#C/C=C/CC/C=C\CCCC/C=C\CCCCCCCCCCCCCC/C=C\C#CC(=O)O [PETROFORMYNIC ACID B] | 0.4 (≈ 0.574 µM) |
| C#C[C@@H](O)/C=C/CCCCCCC#C[C@H](O)C#C/C=C/CC/C=C\CCCC/C=C\CCCCCCCCCCCCCCCCC#CC(=O)O [PETROFORMYNIC ACID C] | 0.4 (≈ 0.572 µM) |
